Test results from patent US10442805B2, “Polymorphic forms of a hydrochloride salt of (S)-2-(1-(9H-purin-6-ylamino)propyl)-5-fluoro-3-phenylquinazolin-4(3H)-one” (GILEAD CALISTOGA LLC, priority 2013, dated 2019).

Experiments:
Format in all cases: physicochemical
[1] = Dynamic vapour sorption (DVS); conditions: 25° C.
[2] = Form screen on the HCl salt: solid form by XRPD after suspension in solvent
Procedure: XRPD patterns were collected at room temperature, using a PANalytical X'Pert MPD Pro Powder X-Ray Diffractometer configured with reflectance stage with spinning, data acquisition range: 2-40 degrees 2θ, Copper (Cu) anode; Kα1/Kα2 radiation; tube current 40 mA; tube tension 45 kV; automatic divergence and anti-scatter slits. Samples were prepared for analysis by distributing solid material as a thin layer on a silicon holder. Each holder was mounted on a reflectance/transmittance stage and rotated during data acquisition. […] After 7 days, a sample of the suspension was removed from the vial/flask, and the sample was centrifuged and filtered to separate the solids from the liquid in the sample. The isolated solids were characterized by XRPD (collected at room temperature). The filtrate was retained. After about 25 days, another sample was removed from the vial/flask, and the sample was centrifuged and filtered to separate the solids from the liquid in the sample. The isolated solids were characterized by XRPD (collected at room temperature).

[3] = Hydrate screen on the HCl salt: solubility in ethanol/water; conditions: ethanol/water mixture, aqueous with cosolvent or surfactant or cyclodextrin, thermodynamic from solid; for solubility at 5 days: solubility column beside XRPD after 5 days
Excerpt: (§1) Polymorphic Form I of a hydrochloride salt of (S)-2-(1-(9H-purin-6-ylamino)propyl)-5-fluoro-3-phenylquinazolin-4(3H)-one, i.e., Compound of Formula (I), prepared according to the protocols described in Example 1 above was mixed with ethanol and water. XRPDs were taken on Days 5 and 21.

[4] = Hydrate screen on the HCl salt: solid form by XRPD in ethanol/water (effect of water on stability of Form I); conditions: for changes in XRPD in the hydrate screen: water/ethanol system
Procedure: XRPD patterns were collected at room temperature, using a PANalytical X'Pert MPD Pro Powder X-Ray Diffractometer configured with reflectance stage with spinning, data acquisition range: 2-40 degrees 2θ, Copper (Cu) anode; Kα1/Kα2 radiation; tube current 40 mA; tube tension 45 kV; automatic divergence and anti-scatter slits. Samples were prepared for analysis by distributing solid material as a thin layer on a silicon holder. Each holder was mounted on a reflectance/transmittance stage and rotated during data acquisition.
as §1

[5] = XRPD of solvate forms after drying or heating
Procedure: For Pattern 1, shown in FIGS. 14A and 15B, 50 mg of the hydrochloride salt of the Compound Formula (I) was suspended in propyl acetate (3.5 mL, 70 vol) and held at 50° C. for 15 minutes, after which 1.1 eq of 12M HCl (11.6 μL) was added and the sample slowly cooled from 50° C. to 5° C. at 0.1° C. per minute. The XRPD pattern shown in FIG. 14A was observed while the sample was wet. […] FIG. 14C depicts the XRPD pattern after further heating at about 145° C. for about 16 hours (Pattern 9′).
For the toluene solvate, shown in FIG. 20 (wet), 50 mg of the polymorphic Form I of a hydrochloride salt of the Compound of Formula (I) was treated with toluene (3.5 mL, 70 vols), producing a suspension at 50° C. This suspension was matured between 50° C. and room temperature (8 hours per cycle) for three days.

[6] = 114 mg in tetrahydrofuran (THF)
[7] = 117 mg in isopropyl acetate (IPAc)
[8] = 140 mg in ethyl acetate (EtOAc)
[9] = 149 mg in methyl ethyl ketone (MEK)
[10] = 150 mg in methyl t-butyl ether (MTBE)
[11] = 154 mg in 2-methyltetrahydrofuran (2-MeTHF)
[12] = 160 mg in dichloromethane (DCM)
[13] = 176 mg in methyl isobutyl ketone (MIBK)

With CC[C@H](Nc1ncnc2[nH]cnc12)c1nc2cccc(F)c2c(=O)n1-c1ccccc1 [(S)-2-(1-(9H-purin-6-ylamino)propyl)-5-fluoro-3-phenylquinazolin-4(3H)-one] the “DVS: mass change as a function of RH” value [1] was “minor mass increase”, the “XRPD after 7 days” value [2, 6] was “new” and the “XRPD after about 25” value [2, 6] was “Form IX”. For the same compound, the “XRPD after 7 days” value [2, 7] was “Form I”, the “XRPD after about 25” value [2, 7] was “Form I” and the “XRPD after 7 days” value ([2]; 119 mg in water) was “Form I”. For the same compound, the “XRPD after about 25” value ([2]; 119 mg in water) was “Form I”, the “XRPD after 7 days” value ([2]; 120 mg in acetonitrile (ACN)) was “Form I” and the “XRPD after about 25” value ([2]; 120 mg in acetonitrile (ACN)) was “Form I”. The “XRPD after 7 days” value ([2]; 125 mg in acetone) was “new”, the “XRPD after about 25” value ([2]; 125 mg in acetone) was “Form X” and the “XRPD after 7 days” value ([2]; 132 mg in 2-propanol) was “Form I”. For the same compound, the “XRPD after about 25” value ([2]; 132 mg in 2-propanol) was “mixture”, the “XRPD after 7 days” value [2, 8] was “Form I” and the “XRPD after about 25” value [2, 8] was “Form I”. The “XRPD after 7 days” value [2, 9] was “new”, the “XRPD after about 25” value [2, 9] was “Form VII” and the “XRPD after 7 days” value [2, 10] was “Form I”. The “XRPD after about 25” value [2, 10] was “Form I”, the “XRPD after 7 days” value [2, 11] was “Form V” and the “XRPD after about 25” value [2, 11] was “Form V”. The “XRPD after 7 days” value ([2]; 155 mg in methanol) was “Form I”, the “XRPD after about 25” value ([2]; 155 mg in methanol) was “Form I” and the “XRPD after 7 days” value ([2]; 157 mg in Ethanol) was “Form I”. For the same compound, the “XRPD after about 25” value ([2]; 157 mg in Ethanol) was “Form I”, the “XRPD after 7 days” value [2, 12] was “new” and the “XRPD after about 25” value [2, 12] was “Form VIII”. The “XRPD after 7 days” value ([2]; 163 mg in n-heptane) was “Form I”, the “XRPD after about 25” value ([2]; 163 mg in n-heptane) was “Form I” and the “XRPD after 7 days” value [2, 13] was “Form I”. For the same compound, the “XRPD after about 25” value [2, 13] was “Form VI”, the “XRPD after about 25” value ([2]; 10 g in 1-butanol) was “Form XIII” and the “XRPD after about 25” value ([2]; 10 g in 1-propanol) was “Form XII”. The “XRPD after about 25” value ([2]; 10 g in 2-propanol) was “Form XI”, the solubility at 21 days ([3]; Ethanol/water aw 0.2) was 60 mg/mL and the solubility at 5 days ([3]; Ethanol/water aw 0.2) was 26 mg/mL. For the same compound, the solubility at 21 days ([3]; Ethanol/water aw 0.3) was 33 mg/mL, the solubility at 5 days ([3]; Ethanol/water aw 0.3) was 47 mg/mL and the solubility at 21 days ([3]; Ethanol/water aw 0.4) was 66 mg/mL. It also gave a solubility at 5 days ([3]; Ethanol/water aw 0.4) of 57 mg/mL, a solubility at 21 days ([3]; Ethanol/water aw 0.5) of 93 mg/mL and a solubility at 5 days ([3]; Ethanol/water aw 0.5) of 72 mg/mL. The solubility at 21 days ([3]; Ethanol/water aw 0.6) was 183 mg/mL, the solubility at 21 days ([3]; Ethanol/water aw 0.7) was 223 mg/mL and the solubility at 21 days ([3]; Ethanol/water aw 0.8) was 174 mg/mL. For the same compound, the solubility at 21 days ([3]; Ethanol/water aw 0.9) was 44 mg/mL, the “XRPD after 5 days” value ([4]; Ethanol/water aw 0.2) was “Form I” and the “XRPD after 21 days” value ([4]; Ethanol/water aw 0.2) was “Form I”. For the same compound, the “XRPD after 5 days” value ([4]; Ethanol/water aw 0.3) was “Form I”, the “XRPD after 21 days” value ([4]; Ethanol/water aw 0.3) was “Form I” and the “XRPD after 5 days” value ([4]; Ethanol/water aw 0.4) was “Form I”. For the same compound, the “XRPD after 21 days” value ([4]; Ethanol/water aw 0.4) was “Form I”, the “XRPD after 5 days” value ([4]; Ethanol/water aw 0.5) was “Form I” and the “XRPD after 21 days” value ([4]; Ethanol/water aw 0.5) was “Form I”. The “XRPD after 5 days” value ([4]; Ethanol/water aw 0.6) was “Form I”, the “XRPD after 21 days” value ([4]; Ethanol/water aw 0.6) was “Form I” and the “XRPD after 5 days” value ([4]; Ethanol/water aw 0.7) was “Form I”. For the same compound, the “XRPD after 21 days” value ([4]; Ethanol/water aw 0.7) was “Form I”, the “XRPD after 5 days” value ([4]; Ethanol/water aw 0.8) was “Form I” and the “XRPD after 21 days” value ([4]; Ethanol/water aw 0.8) was “Form I”. The “changes in XRPD in the hydrate screen” value ([4]; all water activities except 0.9) was “no changes in XRPD” and the “changes in XRPD in the hydrate screen” value ([4]; water activity 0.9) was “converted some of the hydrochloride salt to polymorphic Form I of the free form”.
In the case of CC[C@H](Nc1ncnc2[nH]cnc12)c1nc2cccc(F)c2c(=O)n1-c1ccccc1 [Pattern 1, (S)-2-(1-(9H-purin-6-ylamino)propyl)-5-fluoro-3-phenylquinazolin-4(3H)-one], the “XRPD pattern after drying” value ([5]; drying in a vacuum oven at about 25° C. for 6 days) is reported as “Pattern 9”.
In the case of CC[C@H](Nc1ncnc2[nH]cnc12)c1nc2cccc(F)c2c(=O)n1-c1ccccc1 [Pattern 9, (S)-2-(1-(9H-purin-6-ylamino)propyl)-5-fluoro-3-phenylquinazolin-4(3H)-one], the “XRPD pattern after further heating” value ([5]; further heating at about 145° C. for about 16 hours) is reported as “Pattern 9′”.
With CC[C@H](Nc1ncnc2[nH]cnc12)c1nc2cccc(F)c2c(=O)n1-c1ccccc1 [Toluene solvate, (S)-2-(1-(9H-purin-6-ylamino)propyl)-5-fluoro-3-phenylquinazolin-4(3H)-one] the XRPD upon drying ([5]; upon drying) was “mixture of Pattern 1 and Pattern 9′”.
